Data as given in ChEMBL document CHEMBL3102811, “Synthesis and anti-inflammatory activity of indole glucosinolates” (2014).

Experiments:
Assay type in all cases: functional
THP-1 [1] = test: Antiinflammatory activity in PMA-treated human THP1 cells assessed as inhibition of LPS-induced TNFalpha secretion at 10 uM after 4 hrs by sandwich ELISA relative to control; conditions: THP-1, 4 h
THP-1 [2] = test: Antiinflammatory activity in PMA-treated human THP1 cells assessed as inhibition of LPS-induced TNFalpha secretion at 1 uM after 4 hrs by sandwich ELISA relative to control; conditions: THP-1, 4 h
THP-1 [3] = test: Antiinflammatory activity in PMA-treated human THP1 cells assessed as LPS-induced TNFalpha secretion at 15 uM after 4 hrs by sandwich ELISA relative to control
THP-1 [4] = test: Antiinflammatory activity in PMA-treated human THP1 cells assessed as inhibition of LPS-induced TNFalpha secretion at 15 uM after 4 hrs by sandwich ELISA relative to control; conditions: THP-1, 4 h
THP-1 [5] = test: Antiinflammatory activity in PMA-treated human THP1 cells assessed as LPS-induced TNFalpha secretion at 10 uM after 4 hrs by sandwich ELISA relative to control
THP-1 [6] = test: Antiinflammatory activity in PMA-treated human THP1 cells assessed as LPS-induced TNFalpha secretion at 1 uM after 4 hrs by sandwich ELISA relative to control
THP-1 [7] = test: Antiinflammatory activity in PMA-treated human THP1 cells assessed as LPS-induced TNFalpha secretion at 0.10 uM after 4 hrs by sandwich ELISA relative to control
THP-1 [8] = test: Antiinflammatory activity in PMA-treated human THP1 cells assessed as inhibition of LPS-induced TNFalpha secretion at >=10 uM after 4 hrs by sandwich ELISA relative to control
THP-1 [9] = test: Antiinflammatory activity in PMA-treated human THP1 cells assessed as LPS-induced TNFalpha secretion at 5 uM after 4 hrs by sandwich ELISA relative to control
THP-1 [10] = test: Antiinflammatory activity in PMA-treated human THP1 cells assessed as inhibition of LPS-induced TNFalpha secretion at 0.5 uM after 4 hrs by sandwich ELISA relative to control; conditions: THP-1, 4 h
THP-1 [11] = test: Antiinflammatory activity in PMA-treated human THP1 cells assessed as LPS-induced TNFalpha secretion at 0.5 uM after 4 hrs by sandwich ELISA relative to control

| SMILES | inhibition at 10 µM (THP-1 [1]) [%] | inhibition at 1 µM (THP-1 [2]) [%] | Activity (THP-1 [3]) [pg/mg] | inhibition at 15 µM (THP-1 [4]) [%] | Activity (THP-1 [5]) [pg/mg] | Activity (THP-1 [6]) [pg/mg] | Activity (THP-1 [7]) [pg/mg] | inhibition (INH) (THP-1 [8]) | Activity (THP-1 [9]) [pg/mg] | inhibition at 0.5 µM (THP-1 [10]) [%] | Activity (THP-1 [11]) [pg/mg] |
| --- | --- | --- | --- | --- | --- | --- | --- | --- | --- | --- | --- |
| COc1cccc2[nH]cc(C/C(=N\OS(=O)(=O)[O-])S[C@@H]3O[C@H](CO)[C@@H](O)[C@H](O)[C@H]3O)c12.[K+] | 41 | 24 | 135.01 | 46 | 146.53 | 187.45 | 214.36 | – | – | – | – |
| COn1cc(C/C(=N\OS(=O)(=O)[O-])S[C@@H]2O[C@H](CO)[C@@H](O)[C@H](O)[C@H]2O)c2ccccc21.[K+] | – | ≥ 24 | 169.06 | – | 181.1 | 228.9 | 251.69 | >=32% | – | – | – |
| O=S(=O)([O-])O/N=C(\Cc1c[nH]c2ccccc12)S[C@@H]1O[C@H](CO)[C@@H](O)[C@H](O)[C@H]1O.[K+] | – | ≥ 24 | 136.79 | 54 | 158.94 | 196.65 | 215.57 | – | – | – | – |
| Oc1cc(O)c2c(c1)OC(c1ccc(O)c(O)c1)C(O)C2 (centres undefined) [CATECHIN] | – | – | 255.94 | 48 | – | – | – | – | 282.65 | 37 | 303.98 |
